Data reported in ChEMBL document CHEMBL6153104, “Discovery of the first potent ROR1 degrader for the treatment of non-small cell lung cancer” (Eur J Med Chem, 2025).
pIC50, pKd: −log10 of the molar value. The source made the active and inactive calls. No cut-off for these calls is given here.

What was measured:
NCI-H1299 = assay: Antiproliferative activity against human NCI-H1299 cells assessed as inhibition of cell proliferation incubated for 72 hrs by CCK8 assay; format: functional, cell-based; details: NCI-H1299, 72 h
NCI-H23 [1] = assay: Induction of apoptosis in human NCI-H23 cells assessed as viable cells at 0.3 uM incubated for 24 hrs by […]/Annexin V-PE staining based flow cytometric analysis (reference value: 92.7 %); format: functional; details: read-out: Activity
NCI-H23 [2] = assay: Induction of apoptosis in human NCI-H23 cells assessed as viable cells at 1 uM incubated for 24 hrs by […]/Annexin V-PE staining based flow cytometric analysis (reference value: 92.7 %); format: functional; details: read-out: Activity
NCI-H23 [3] = assay: Induction of apoptosis in human NCI-H23 cells assessed as viable cells at 0.1 uM incubated for 24 hrs by […]/Annexin V-PE staining based flow cytometric analysis (reference value: 92.7 %); format: functional; details: read-out: Activity
NCI-H23 [4] = assay: Induction of apoptosis in human NCI-H23 cells assessed as necrotic cells at 0.1 uM incubated for 24 hrs by […]/Annexin V-PE staining based flow cytometric analysis (reference value: 0.5 %); format: functional
NCI-H23 [5] = assay: Induction of apoptosis in human NCI-H23 cells assessed as late apoptotic cells at 0.3 uM incubated for 24 hrs by […]/Annexin V-PE staining based flow cytometric analysis (reference value: 1.6 %); format: functional
NCI-H23 [6] = assay: Induction of apoptosis in human NCI-H23 cells assessed as early apoptotic cells at 0.1 uM incubated for 24 hrs by […]/Annexin V-PE staining based flow cytometric analysis (reference value: 5.1 %); format: functional
NCI-H23 [7] = assay: Induction of apoptosis in human NCI-H23 cells assessed as early apoptotic cells at 1 uM incubated for 24 hrs by […]/Annexin V-PE staining based flow cytometric analysis (reference value: 5.1 %); format: functional
NCI-H23 [8] = assay: Induction of apoptosis in human NCI-H23 cells assessed as late apoptotic cells at 0.1 uM incubated for 24 hrs by […]/Annexin V-PE staining based flow cytometric analysis (reference value: 1.6 %); format: functional
[9] = target: Inactive tyrosine-protein kinase transmembrane receptor ROR1 (Homo sapiens, UniProt Q01973); assay: Binding affinity to RED-NHS-labeled human ROR1 kinase domain (460 to 752 residues) extracted from Sf9 cells assessed as dissociation constant incubated for 30 mins by MST analysis; format: cell-free
NCI-H23 [10] = assay: Induction of apoptosis in human NCI-H23 cells assessed as early apoptotic cells at 0.3 uM incubated for 24 hrs by […]/Annexin V-PE staining based flow cytometric analysis (reference value: 5.1 %); format: functional
NCI-H1975 = assay: Antiproliferative activity against human NCI-H1975 cells assessed as inhibition of cell proliferation incubated for 72 hrs by CCK8 assay; format: functional, cell-based; details: NCI-H1975, 72 h
NCI-H23 [11] = assay: Antiproliferative activity against human NCI-H23 cells assessed as inhibition of cell proliferation incubated for 72 hrs by CCK8 assay; format: functional, cell-based; details: NCI-H23, 72 h
NCI-H23 [12] = assay: Induction of apoptosis in human NCI-H23 cells assessed as necrotic cells at 0.3 uM incubated for 24 hrs by […]/Annexin V-PE staining based flow cytometric analysis (reference value: 0.5 %); format: functional
NCI-H23 [13] = assay: Induction of apoptosis in human NCI-H23 cells assessed as PARP1 cleavage at 0.1 to 1 uM measured after 10 hrs by Western blot analysis; format: functional, cell-based; details: dose 0.1-1 µM
NCI-H460 = assay: Antiproliferative activity against human NCI-H460 cells assessed as inhibition of cell proliferation incubated for 72 hrs by CCK8 assay; format: functional, cell-based; details: NCI-H460, 72 h
NCI-H23 [14] = assay: Induction of apoptosis in human NCI-H23 cells assessed as late apoptotic cells at 1 uM incubated for 24 hrs by […]/Annexin V-PE staining based flow cytometric analysis (reference value: 1.6 %); format: functional
NCI-H23 [15] = assay: Induction of apoptosis in human NCI-H23 cells assessed as necrotic cells at 1 uM incubated for 24 hrs by […]/Annexin V-PE staining based flow cytometric analysis (reference value: 0.5 %); format: functional
NCI-H23 [16] = assay: Induction of apoptosis in human NCI-H23 cells assessed as PARP1 cleavage at 1 uM measured after 10 hrs by Western blot analysis; format: functional
[17] = target: T1, von Hippel-Lindau disease tumor suppressor/Inactive tyrosine-protein kinase transmembrane receptor ROR1 (Homo sapiens, UniProt P40337+Q01973); assay: PROTAC activity at VHL/ROR1 in human NCI-H23 cells assessed as induction of ROR1 degradation by measuring maximal efficacy at 10 to 1000 nM incubated for 12 hrs by Western blot analysis relative to control; format: cell-based; details: dose 10-1000 nM
Target sequence in this assay (P40337 whole entry): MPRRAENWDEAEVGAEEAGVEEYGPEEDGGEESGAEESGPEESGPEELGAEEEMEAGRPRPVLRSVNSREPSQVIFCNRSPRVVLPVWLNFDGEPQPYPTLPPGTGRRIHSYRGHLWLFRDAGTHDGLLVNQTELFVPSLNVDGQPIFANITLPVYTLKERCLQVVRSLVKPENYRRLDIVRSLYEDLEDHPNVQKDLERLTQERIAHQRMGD
Target sequence in this assay (Q01973 30-937 partner limits assumed): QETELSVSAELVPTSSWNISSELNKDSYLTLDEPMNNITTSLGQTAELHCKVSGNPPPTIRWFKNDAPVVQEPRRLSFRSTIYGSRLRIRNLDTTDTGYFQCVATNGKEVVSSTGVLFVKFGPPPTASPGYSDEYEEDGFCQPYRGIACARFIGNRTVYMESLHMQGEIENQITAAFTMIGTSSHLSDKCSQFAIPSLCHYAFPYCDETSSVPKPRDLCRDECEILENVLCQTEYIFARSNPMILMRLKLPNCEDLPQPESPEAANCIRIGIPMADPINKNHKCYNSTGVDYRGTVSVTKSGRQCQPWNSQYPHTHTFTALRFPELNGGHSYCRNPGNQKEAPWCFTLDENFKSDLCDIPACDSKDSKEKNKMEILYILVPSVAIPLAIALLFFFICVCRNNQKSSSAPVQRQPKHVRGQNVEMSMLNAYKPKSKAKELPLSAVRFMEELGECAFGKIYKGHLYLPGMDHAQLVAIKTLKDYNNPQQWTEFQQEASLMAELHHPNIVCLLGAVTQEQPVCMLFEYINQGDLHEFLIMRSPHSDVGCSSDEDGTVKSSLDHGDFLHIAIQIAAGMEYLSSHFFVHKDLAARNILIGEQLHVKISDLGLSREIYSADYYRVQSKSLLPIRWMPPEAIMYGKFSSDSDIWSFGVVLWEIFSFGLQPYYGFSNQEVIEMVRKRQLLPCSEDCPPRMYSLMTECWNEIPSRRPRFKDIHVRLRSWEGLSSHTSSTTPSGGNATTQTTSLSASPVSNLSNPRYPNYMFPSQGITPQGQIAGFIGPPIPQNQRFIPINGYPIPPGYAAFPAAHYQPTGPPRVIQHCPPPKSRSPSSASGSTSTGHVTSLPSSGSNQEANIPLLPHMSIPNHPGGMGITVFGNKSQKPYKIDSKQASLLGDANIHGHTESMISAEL

[18] = target: T2, von Hippel-Lindau disease tumor suppressor/Cyclin-dependent kinase 4 (Homo sapiens) (UniProt P11802+P40337); assay: PROTAC activity at VHL/CDK4 in human NCI-H1975 cells assessed as induction of CDK4 degradation by Western blot analysis; format: cell-based
[19] = target: T3, von Hippel-Lindau disease tumor suppressor/Tyrosine-protein kinase transmembrane receptor ROR2 (Homo sapiens) (UniProt Q01974+P40337); assay: PROTAC activity at VHL/ROR2 in human NCI-H23 cells assessed as induction of ROR2 degradation by Western blot analysis; format: cell-based
[20] = target: T4, von Hippel-Lindau disease tumor suppressor/Cyclin-dependent kinase-like 2 (Homo sapiens) (UniProt Q92772+P40337); assay: PROTAC activity at VHL/CDKL2 in human NCI-H1975 cells assessed as induction of CDKL2 degradation by Western blot analysis; format: cell-based
[21] = target: T1, von Hippel-Lindau disease tumor suppressor/Inactive tyrosine-protein kinase transmembrane receptor ROR1; assay: PROTAC activity at VHL/ROR1 in human NCI-H1975 cells assessed as induction of ROR1 degradation incubated for 12 hrs by Western blot analysis; format: cell-based
Target sequence in this assay (P40337 whole entry): as the sequence (P40337 whole entry) above
Target sequence in this assay (Q01973 whole entry): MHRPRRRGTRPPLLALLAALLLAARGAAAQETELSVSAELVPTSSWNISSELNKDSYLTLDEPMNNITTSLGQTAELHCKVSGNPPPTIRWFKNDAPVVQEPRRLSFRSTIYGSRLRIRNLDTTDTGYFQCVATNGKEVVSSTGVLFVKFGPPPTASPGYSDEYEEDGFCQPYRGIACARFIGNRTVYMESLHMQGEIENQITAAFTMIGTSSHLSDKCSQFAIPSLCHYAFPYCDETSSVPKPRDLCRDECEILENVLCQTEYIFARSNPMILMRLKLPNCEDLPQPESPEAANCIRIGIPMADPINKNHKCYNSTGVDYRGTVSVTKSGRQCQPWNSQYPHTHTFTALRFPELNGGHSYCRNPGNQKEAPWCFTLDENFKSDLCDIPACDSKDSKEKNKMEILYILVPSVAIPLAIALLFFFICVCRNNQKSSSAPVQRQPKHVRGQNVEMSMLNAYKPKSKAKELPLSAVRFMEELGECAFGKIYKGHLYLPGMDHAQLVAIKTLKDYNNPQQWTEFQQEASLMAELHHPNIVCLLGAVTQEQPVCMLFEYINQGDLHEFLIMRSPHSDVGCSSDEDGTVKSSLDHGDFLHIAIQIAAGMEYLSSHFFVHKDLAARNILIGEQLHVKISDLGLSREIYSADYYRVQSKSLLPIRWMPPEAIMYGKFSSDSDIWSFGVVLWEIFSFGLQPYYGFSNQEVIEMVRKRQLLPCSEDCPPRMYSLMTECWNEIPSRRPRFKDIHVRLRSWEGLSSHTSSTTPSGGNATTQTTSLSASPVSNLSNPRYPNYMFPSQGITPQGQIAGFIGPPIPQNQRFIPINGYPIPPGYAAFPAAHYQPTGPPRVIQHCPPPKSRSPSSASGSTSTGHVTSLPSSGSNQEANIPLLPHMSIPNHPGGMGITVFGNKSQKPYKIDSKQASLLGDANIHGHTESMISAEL

[22] = target: T1, von Hippel-Lindau disease tumor suppressor/Inactive tyrosine-protein kinase transmembrane receptor ROR1; assay: PROTAC activity at VHL/ROR1 in human NCI-H23 cells assessed as induction of ROR1 degradation at 1 uM incubated for 4 hrs by Western blot analysis; format: cell-based
Target sequence in this assay (P40337 whole entry): as the sequence (P40337 whole entry) above
Target sequence in this assay (Q01973 30-937 partner limits assumed): as the sequence (Q01973 30-937 partner limits assumed) above

[23] = target: T1, von Hippel-Lindau disease tumor suppressor/Inactive tyrosine-protein kinase transmembrane receptor ROR1; assay: PROTAC activity at VHL/ROR1 in human NCI-H23 cells assessed as induction of ROR1 degradation at 0.5 uM preincubated with bafilomycin A1 for 2 hrs followed by compound addition and measured after 24 hrs by Western blot analysis; format: cell-based
Target sequence in this assay (P40337 whole entry): as the sequence (P40337 whole entry) above
Target sequence in this assay (Q01973 30-937 partner limits assumed): as the sequence (Q01973 30-937 partner limits assumed) above

[24] = target: T1, von Hippel-Lindau disease tumor suppressor/Inactive tyrosine-protein kinase transmembrane receptor ROR1; assay: PROTAC activity at VHL/ROR1 in human NCI-H23 cells assessed as induction of ROR1 degradation at 1 uM incubated for 24 hrs by Western blot analysis; format: cell-based
Target sequence in this assay (P40337 whole entry): as the sequence (P40337 whole entry) above
Target sequence in this assay (Q01973 30-937 partner limits assumed): as the sequence (Q01973 30-937 partner limits assumed) above

[25] = target: T1, von Hippel-Lindau disease tumor suppressor/Inactive tyrosine-protein kinase transmembrane receptor ROR1; assay: PROTAC activity at VHL/ROR1 in human NCI-H460 cells assessed as induction of ROR1 degradation incubated for 12 hrs by Western blot analysis; format: cell-based
Target sequence in this assay (P40337 whole entry): as the sequence (P40337 whole entry) above
Target sequence in this assay (Q01973 whole entry): as the sequence (Q01973 whole entry) above

NCI-H23 [26] = assay: Induction of apoptosis in human NCI-H23 cells assessed as PARP1 cleavage at 0.1 uM measured after 10 hrs by Western blot analysis; format: functional, cell-based
[27] = target: T1, von Hippel-Lindau disease tumor suppressor/Inactive tyrosine-protein kinase transmembrane receptor ROR1; assay: PROTAC activity at VHL/ROR1 in human NCI-H23 cells assessed as induction of ROR1 degradation preincubated with cycloheximide followed by compound addition and measured after 6 hrs by Western blot analysis; format: cell-based
Target sequence in this assay (P40337 whole entry): as the sequence (P40337 whole entry) above
Target sequence in this assay (Q01973 30-937 partner limits assumed): as the sequence (Q01973 30-937 partner limits assumed) above

[28] = target: T1, von Hippel-Lindau disease tumor suppressor/Inactive tyrosine-protein kinase transmembrane receptor ROR1; assay: PROTAC activity at VHL/ROR1 in human NCI-H23 cells assessed as induction of ROR1 degradation at 0.1 uM incubated for 24 hrs by Western blot analysis relative to control; format: cell-based
Target sequence in this assay (P40337 whole entry): as the sequence (P40337 whole entry) above
Target sequence in this assay (Q01973 30-937 partner limits assumed): as the sequence (Q01973 30-937 partner limits assumed) above

[29] = target: T1, von Hippel-Lindau disease tumor suppressor/Inactive tyrosine-protein kinase transmembrane receptor ROR1; assay: PROTAC activity at VHL/ROR1 in human NCI-H23 cells assessed as induction of ROR1 degradation incubated for 12 hrs by Western blot analysis; format: cell-based
[30] = target: T1, von Hippel-Lindau disease tumor suppressor/Inactive tyrosine-protein kinase transmembrane receptor ROR1; assay: PROTAC activity at VHL/ROR1 in human NCI-H23 cells assessed as induction of ROR1 degradation at 0.7 uM preincubated with TAK-243 for 2 hrs followed by compound addition and measured after 24 hrs by Western blot analysis; format: cell-based
[31] = target: T4, von Hippel-Lindau disease tumor suppressor/Cyclin-dependent kinase-like 2 (Homo sapiens); assay: PROTAC activity at VHL/CDKL2 in human NCI-H23 cells assessed as induction of CDKL2 degradation by Western blot analysis; format: cell-based
[32] = target: T1, von Hippel-Lindau disease tumor suppressor/Inactive tyrosine-protein kinase transmembrane receptor ROR1; assay: PROTAC activity at VHL/ROR1 in human NCI-H23 cells assessed as induction of ROR1 degradation at 1 uM by Western blot analysis; format: cell-based; details: time 2-24 hrs
[33] = target: T5, von Hippel-Lindau disease tumor suppressor/Cyclin-dependent kinase 7 (Homo sapiens) (UniProt P50613+P40337); assay: PROTAC activity at VHL/CDK7 in human NCI-H23 cells assessed as induction of CDK7 degradation by Western blot analysis; format: cell-based
[34] = target: T1, von Hippel-Lindau disease tumor suppressor/Inactive tyrosine-protein kinase transmembrane receptor ROR1; assay: PROTAC activity at VHL/ROR1 in human NCI-H23 cells assessed as induction of ROR1 degradation at 1 uM incubated for 24 hrs by Western blot analysis relative to control; format: cell-based
[35] = target: T1, von Hippel-Lindau disease tumor suppressor/Inactive tyrosine-protein kinase transmembrane receptor ROR1; assay: PROTAC activity at VHL/ROR1 in human NCI-H1299 cells assessed as induction of ROR1 degradation incubated for 12 hrs by Western blot analysis; format: cell-based
Target sequence in this assay (P40337 whole entry): as the sequence (P40337 whole entry) above
Target sequence in this assay (Q01973 whole entry): as the sequence (Q01973 whole entry) above

[36] = target: T5, von Hippel-Lindau disease tumor suppressor/Cyclin-dependent kinase 7 (Homo sapiens); assay: PROTAC activity at VHL/CDK7 in human NCI-H1975 cells assessed as induction of CDK7 degradation by Western blot analysis; format: cell-based
[37] = target: T3, von Hippel-Lindau disease tumor suppressor/Tyrosine-protein kinase transmembrane receptor ROR2 (Homo sapiens); assay: PROTAC activity at VHL/ROR2 in human NCI-H1975 cells assessed as induction of ROR2 degradation at 1 uM by Western blot analysis; format: cell-based
[38] = target: T2, von Hippel-Lindau disease tumor suppressor/Cyclin-dependent kinase 4 (Homo sapiens); assay: PROTAC activity at VHL/CDK4 in human NCI-H23 cells assessed as induction of CDK4 degradation by Western blot analysis; format: cell-based
[39] = target: T1, von Hippel-Lindau disease tumor suppressor/Inactive tyrosine-protein kinase transmembrane receptor ROR1; assay: PROTAC activity at VHL/ROR1 in human NCI-H23 cells assessed as induction of ROR1 degradation at 0.7 uM preincubated with PS-341 for 2 hrs followed by compound addition and measured after 24 hrs by Western blot analysis; format: cell-based

T4 sequence (P40337 whole entry, looked up): as the sequence (P40337 whole entry) above
T4 sequence (Q92772 whole entry, looked up): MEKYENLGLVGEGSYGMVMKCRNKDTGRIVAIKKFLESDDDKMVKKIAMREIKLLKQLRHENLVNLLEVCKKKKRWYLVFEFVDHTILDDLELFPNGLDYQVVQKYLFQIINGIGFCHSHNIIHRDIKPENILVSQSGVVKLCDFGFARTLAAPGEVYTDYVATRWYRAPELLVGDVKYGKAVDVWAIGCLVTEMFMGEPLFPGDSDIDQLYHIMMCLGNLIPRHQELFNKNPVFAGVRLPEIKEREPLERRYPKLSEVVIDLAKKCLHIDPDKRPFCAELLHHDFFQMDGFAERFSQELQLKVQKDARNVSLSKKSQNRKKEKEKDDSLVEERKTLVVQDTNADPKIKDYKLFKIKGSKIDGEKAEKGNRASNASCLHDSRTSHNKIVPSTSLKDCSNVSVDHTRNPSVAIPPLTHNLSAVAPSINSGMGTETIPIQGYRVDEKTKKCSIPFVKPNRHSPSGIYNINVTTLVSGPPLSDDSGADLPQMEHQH
T3 sequence (P40337 whole entry, looked up): as the sequence (P40337 whole entry) above
T3 sequence (Q01974 whole entry, looked up): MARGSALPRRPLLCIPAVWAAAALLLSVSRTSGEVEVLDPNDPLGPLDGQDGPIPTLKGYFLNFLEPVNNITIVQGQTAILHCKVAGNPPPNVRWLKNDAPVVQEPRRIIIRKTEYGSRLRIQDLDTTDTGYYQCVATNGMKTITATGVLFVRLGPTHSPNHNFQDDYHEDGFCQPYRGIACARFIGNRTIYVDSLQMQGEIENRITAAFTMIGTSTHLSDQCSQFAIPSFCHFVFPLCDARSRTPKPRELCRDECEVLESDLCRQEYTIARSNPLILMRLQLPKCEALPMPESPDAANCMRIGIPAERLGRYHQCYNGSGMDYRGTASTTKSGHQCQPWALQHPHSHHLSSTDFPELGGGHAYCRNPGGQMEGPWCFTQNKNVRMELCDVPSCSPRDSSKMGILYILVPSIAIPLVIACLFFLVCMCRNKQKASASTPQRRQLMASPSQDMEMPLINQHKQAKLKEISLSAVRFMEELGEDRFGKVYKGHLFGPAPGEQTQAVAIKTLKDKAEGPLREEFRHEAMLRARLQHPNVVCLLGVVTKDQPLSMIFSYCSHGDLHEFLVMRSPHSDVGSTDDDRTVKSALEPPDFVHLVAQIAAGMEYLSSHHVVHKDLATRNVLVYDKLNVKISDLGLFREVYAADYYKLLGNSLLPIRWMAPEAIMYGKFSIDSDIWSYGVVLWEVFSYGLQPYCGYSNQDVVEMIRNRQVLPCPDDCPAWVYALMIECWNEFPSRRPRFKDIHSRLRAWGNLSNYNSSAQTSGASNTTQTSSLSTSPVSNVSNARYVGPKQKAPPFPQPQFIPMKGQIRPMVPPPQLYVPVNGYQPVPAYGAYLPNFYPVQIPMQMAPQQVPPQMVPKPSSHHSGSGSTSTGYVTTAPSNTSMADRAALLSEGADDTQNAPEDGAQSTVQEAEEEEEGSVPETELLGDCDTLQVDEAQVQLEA

CCOCCN1CCN(c2ccc(-c3nc4c(NC5CCN(CC)CC5)c(Br)cnc4[nH]3)cc2)CC1
pIC50 (NCI-H1299): 5.24 | viability at 0.3 µM (NCI-H23 [1]): 94.5% | viability at 1 µM (NCI-H23 [2]): 63.7% | viability at 0.1 µM (NCI-H23 [3]): 96.9% | Activity (NCI-H23 [4]): 0.2% | Activity (NCI-H23 [5]): 1% | Activity (NCI-H23 [6]): 2.5% | Activity (NCI-H23 [7]): 29.5% | Activity (NCI-H23 [8]): 0.5% | pKd [9]: 4.38 | Activity (NCI-H23 [10]): 4.3% | pIC50 (NCI-H1975): 6.43 | pIC50 (NCI-H23 [11]): 6.32 | Activity (NCI-H23 [12]): 0.2% | Activity (NCI-H23 [13]): Active; Less Potent Compared To Compound 11 | pIC50 (NCI-H460): 5.28 | Activity (NCI-H23 [14]): 6.1% | Activity (NCI-H23 [15]): 0.7% | Activity (NCI-H23 [16]): 100%

CCN1CCC(Nc2c(Br)cnc3[nH]c(-c4ccc(N5CCN(C(=O)CCCCCCCCC(=O)N[C@H](C(=O)N6C[C@H](O)C[C@H]6C(=O)NCc6ccc(-c7scnc7C)cc6)C(C)(C)C)CC5)cc4)nc23)CC1
pIC50 (NCI-H1299): 6.79 | viability at 0.3 µM (NCI-H23 [1]): 32.5% | Emax [17]: 93.7% | Activity [18]: inactive | Activity [19]: inactive | viability at 1 µM (NCI-H23 [2]): 29.9% | Activity [20]: inactive | viability at 0.1 µM (NCI-H23 [3]): 63.2% | Activity (NCI-H23 [4]): 0.3% | Activity (NCI-H23 [5]): 20.1% | DC50 [21]: 42.1 nM | Activity (NCI-H23 [6]): 29.9% | Activity (NCI-H23 [7]): 46.9% | Activity (NCI-H23 [8]): 6.5% | Activity [22]: Active | Activity [23]: Active | Activity [24]: Active; Maximal Degradation Observed | DC50 [25]: 69 nM | Activity (NCI-H23 [10]): 46.5% | Activity (NCI-H23 [26]): Active | pIC50 (NCI-H1975): 7.20 | pIC50 (NCI-H23 [11]): 7.44 | Activity [27]: Active; Compound Reduction Ror1 Protein Via Protein Degradation Pathway | Activity (NCI-H23 [12]): 0.8% | Activity [28]: 93% | Activity [29]: Dose-dependent-effect | DC50 [29]: 40.9 nM | Activity [30]: inactive | Activity [31]: inactive | Activity [32]: Time-dependent-effect | Activity [33]: inactive | pIC50 (NCI-H460): 7.07 | Activity (NCI-H23 [14]): 22.1% | Activity (NCI-H23 [15]): 1.4% | Activity [34]: 99.7% | DC50 [35]: 83.3 nM | Activity [36]: inactive | Activity [37]: Active; Slight Degradation Observed | Activity [38]: inactive | Activity [39]: inactive
